Here are results for two molecules from patent publication US9546150B2, “Substituted quinazolin-4-ones for inhibiting ubiquitin specific protease 7” (HYBRIGENICS SA, priority 2011, dated 2017).

Experiment [1] deals with T1, USP5 (Homo sapiens, UniProt P45974).
T1 sequence (P45974 1-858): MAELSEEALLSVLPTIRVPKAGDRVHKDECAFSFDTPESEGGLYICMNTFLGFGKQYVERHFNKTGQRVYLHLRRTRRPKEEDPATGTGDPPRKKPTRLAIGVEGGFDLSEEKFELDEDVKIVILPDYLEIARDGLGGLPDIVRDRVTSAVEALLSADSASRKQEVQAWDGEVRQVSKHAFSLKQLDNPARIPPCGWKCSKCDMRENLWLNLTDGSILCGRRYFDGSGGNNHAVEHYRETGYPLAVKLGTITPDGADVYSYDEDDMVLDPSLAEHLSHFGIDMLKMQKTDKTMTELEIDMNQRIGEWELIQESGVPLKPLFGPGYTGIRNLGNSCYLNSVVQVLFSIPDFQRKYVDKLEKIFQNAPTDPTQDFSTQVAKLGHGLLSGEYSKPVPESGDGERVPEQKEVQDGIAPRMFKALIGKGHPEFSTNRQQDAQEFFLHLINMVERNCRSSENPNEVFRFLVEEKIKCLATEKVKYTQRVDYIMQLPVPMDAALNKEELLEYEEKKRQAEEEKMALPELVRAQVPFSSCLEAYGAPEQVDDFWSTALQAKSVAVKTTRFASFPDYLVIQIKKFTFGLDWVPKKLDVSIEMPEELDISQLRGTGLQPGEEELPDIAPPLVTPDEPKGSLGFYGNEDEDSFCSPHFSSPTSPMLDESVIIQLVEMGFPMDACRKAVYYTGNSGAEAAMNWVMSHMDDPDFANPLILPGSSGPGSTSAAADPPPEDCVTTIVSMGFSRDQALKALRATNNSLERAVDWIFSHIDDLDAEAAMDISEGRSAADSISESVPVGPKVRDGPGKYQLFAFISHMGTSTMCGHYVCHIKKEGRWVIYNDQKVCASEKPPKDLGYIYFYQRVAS
Nature of the experiment: HAUbVS competition assay in HEK293 cell lysates, USP5. The experiment is classed as biochemical. As to conditions: 12.5-200 μM.
Experimental: The HA-Ub-VS probe (Hemagglutin tag-Ubiquitin-Vinyl Sulfone) was used in this study to directly visualize the activity of all deubiquitinating enzymes from native proteomes.
HEK293 cells were harvested and lysed on ice with a non denaturating buffer containing Tris pH7.4, 50 mM; NaCl, 150 mM; MgCl2, 5 mM; EDTA, 0.5 mM; DTT, 2 mM; ATP (adenosine triphosphate), 2 mM; NP40 (nonyl phenoxypolyethoxylethanol), 0.5% and glycerol, 10%. Samples were incubated at 4° C. for 1 hour and clarified. Proteins were then quantified by Bradford method (Bio-Rad Protein Assay). […] The ubiquitin labeling reaction was initiated by the addition of HA-Ub-VS (8 μg/ml) in labeling buffer (Tris pH7.6, 50 mM; MgCl2, 5 mM; EDTA, 0.5 mM; DTT, 2 mM; ATP, 2 mM; sucrose, 250 mM) and incubated at room temperature for 15 min. Samples were next heated at 100° C. for 10 minutes and briefly sonicated. They were resolved by SDS-polyacrylamide gel electrophoresis (SDS-PAGE), transferred to a nitrocellulose membrane and probed with antibodies against USP7, HA, UCH-L3, CYLD, USP8, USP5, USP10 and Stat3. […] Signals were detected by enhanced chemiluminescence (ECL; Amersham) according to the reagent manufacturer's instructions.

The target of experiment [2] is USP7 (Homo sapiens, UniProt Q93009). The experiment in a line: Time-dependent pre-incubation experiment with USP7, Ub-AMC. In kind it is biochemical. Details: Full-length wild-type human USP7 and its catalytic mutant; His tag (pFastBac-HT vector) (N); made in house; host or cells: Spodoptera frugiperda Sf9 (or High Five) insect cells, baculovirus. On the procedure:
To better understand the mechanism of inhibition of USP7 by our USP7-specific compounds, several experiments were performed. […] […].

Sequence of USP7 (Q93009 whole entry): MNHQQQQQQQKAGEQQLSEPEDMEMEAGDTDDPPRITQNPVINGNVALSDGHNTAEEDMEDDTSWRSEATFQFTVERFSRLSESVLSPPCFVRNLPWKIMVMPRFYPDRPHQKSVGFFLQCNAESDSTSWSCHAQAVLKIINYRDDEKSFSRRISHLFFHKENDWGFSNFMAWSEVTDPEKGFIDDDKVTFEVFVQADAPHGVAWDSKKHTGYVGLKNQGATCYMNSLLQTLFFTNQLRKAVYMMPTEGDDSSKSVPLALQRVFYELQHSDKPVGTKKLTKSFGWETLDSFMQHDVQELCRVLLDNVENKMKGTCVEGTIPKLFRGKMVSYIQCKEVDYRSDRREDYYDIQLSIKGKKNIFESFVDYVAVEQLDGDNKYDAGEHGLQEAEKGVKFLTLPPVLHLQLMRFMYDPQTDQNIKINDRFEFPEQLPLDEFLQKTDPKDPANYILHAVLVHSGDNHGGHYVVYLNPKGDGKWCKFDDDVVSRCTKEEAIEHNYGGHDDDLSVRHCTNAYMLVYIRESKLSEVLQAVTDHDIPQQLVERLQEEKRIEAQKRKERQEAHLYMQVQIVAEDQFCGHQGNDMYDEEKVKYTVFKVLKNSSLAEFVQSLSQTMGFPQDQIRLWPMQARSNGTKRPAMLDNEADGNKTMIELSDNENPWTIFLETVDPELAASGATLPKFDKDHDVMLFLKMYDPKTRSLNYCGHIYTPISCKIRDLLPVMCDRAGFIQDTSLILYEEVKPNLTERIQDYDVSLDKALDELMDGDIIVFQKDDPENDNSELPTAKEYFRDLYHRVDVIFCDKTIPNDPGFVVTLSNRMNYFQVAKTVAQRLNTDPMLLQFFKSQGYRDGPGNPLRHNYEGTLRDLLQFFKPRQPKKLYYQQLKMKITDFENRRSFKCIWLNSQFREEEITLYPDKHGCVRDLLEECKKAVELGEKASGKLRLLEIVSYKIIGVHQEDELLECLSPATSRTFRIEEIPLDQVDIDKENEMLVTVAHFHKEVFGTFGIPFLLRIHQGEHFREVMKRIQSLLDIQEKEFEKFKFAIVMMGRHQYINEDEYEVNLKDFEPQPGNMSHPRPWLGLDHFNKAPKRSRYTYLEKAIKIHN

Take `CC(Cc1cccs1)C(=O)N1CCC(O)(Cn2cnc3ccccc3c2=O)CC1` (stereo not drawn) [Example 5, 3-({4-hydroxy-1-[2-methyl-3-(thiophen-2-yl)propanoyl]piperidin-4-yl}methyl)-3,4-dihydroquinazolin-4-one]: the “blocking of HAUbVS labeling of USP5” value in experiment [1] was “without any cross-reaction”.
Consider `O=C(CCc1ccccc1)N1CCC(O)(Cn2cnc3cc(Cl)ccc3c2=O)CC1` [Example 2, 7-chloro-3-{[4-hydroxy-1-(3-phenylpropanoyl)piperidin-4-yl]methyl}-3,4-dihydroquinazolin-4-one], for which the “time dependence of USP7 inhibition” value in experiment [2] (100 μM, pre-incubation 30 min, 1 h, 2 h, 4 h, 6 h) is reported as “not a time-dependent inhibitor”. Also, the inhibition at 100 µM in experiment [2] (USP7 100 pM, pre-incubation 30 min to 6 h, Ub-AMC) was ~75%.
